From patent publication US9701655B2, “Functionalised benzopyran compounds and use thereof” (NOVOGEN LIMITED, priority 2014, dated 2017)
Values after ≈ are worked out from the molar mass of the structure shown. Like-named read-outs stand apart in the source and are kept apart here.

Tests used:
D54-resistant = test: Cell viability (SRB or MTT), TMZ-resistant D54 subclone; type: cell-based; conditions: 72 h, 72 hours post treatment
Experimental: (§1) The anti-proliferative activity of compound 2 was also assessed in matched TMZ susceptible (D54-S and U87-S) or resistant (D54-R and […]) cell lines (Hong Kong University, Dr Gilberto Leung). […] SRB tended to overestimate cytotoxicity compared to MTT.

U87-resistant = test: Cell viability (SRB or MTT), TMZ-resistant U87 subclone; type: cell-based; conditions: 72 h, 72 hours post treatment
Experimental: as §1

OCSC-2 cells = test: OCSC-2 proliferation after removal of drug pressure (Incucyte confluence); type: cell-based, human; conditions: pre-treated 24 hrs with 0.1, 1 and 10 μg/ml, washed, additional 48 hrs in medium without drug
Experimental: Given the concept that residual cancer progenitor cells within the tumour post-treatment are responsible for tumour relapse, a critical therapeutic strategy to prolong survival is to eradicate those tumour progenitor cells driving relapse. In vitro studies were conducted to determine whether compound 2 was able to inhibit OCSC proliferation once drug pressure was removed. […] Culture plates were immediately placed in the Incucyte system and imaged every 2 hrs. Growth curves were calculated as a measure of cell confluence using an integrated confluence algorithm as a surrogate for cell number to determine proliferation rate.

OCSC1 = test: Ovarian cancer stem cell proliferation/cytotoxicity (Incucyte, CellTox), OCSC1; type: cell-based; conditions: Homo sapiens; OCSC-1, duplicate experiments; read-out: concentrations retarding proliferation of ovarian cancer stem cells
Experimental: The ability of compounds 1 to 14 to inhibit the proliferation of ovarian cancer stem cells was established from patient-derived explants. The laboratory of Dr Gil Mor (Yale University) have identified two types of epithelial ovarian cancer cells: Type I are chemoresistant, CD44+ve epithelial ovarian cancer (EOC) cells and Type II are chemosensitive CD44−ve EOC cells. Ovarian cancer stem cells were prepared as described previously (Alvero et al., 2009). Cell proliferation was assessed using the Incucyte Kinetic Imaging System. The cytotoxic effect of the compounds was assessed concurrently using the CellPlayer cytotoxicity assay using CellTox™ (Promega, Cat#: G8731). Monolayer cells were trypsinised and plated in 96-well plates. After 24 hrs, once the cells have attached, treatment was dispensed in RPMI with 10% FBS. Drug concentrations used were: 0.001, 0.01, 0.1, 1, and 10 μg/ml. An appropriate dilution of CellTox™ reagent (1:1000) was added to each well after adding the test compound. Culture plates were immediately placed in the Incucyte system and imaged every 2 hrs using the “Fluorescence and Phase contrast” option on the Incucyte equipment. Growth curves were calculated as a measure of cell confluence using an integrated confluence algorithm as a surrogate for cell number to determine proliferation rate. The area under the curve calculated from the plot of CsttTox Count/mm^2 over time was then used to calculate the IC50. […] Compounds 6, 9 and 13 were also potent at inhibiting the proliferation of OCSC-2 cells at concentrations […] (Table 4). Compound 2 also elicited a similar effect against F2 cells at log-fold higher concentrations (0.1-1 μg/ml).

[1] = test system: Ovarian cancer stem cell spheroids (OCSC-2); test: Ovarian cancer stem cell spheroid integrity (microscopy); type: cell-based, human; conditions: 24 hrs exposure
Experimental: FIG. 9: Compound 2 destroys ovarian cancer stem cell spheroids. OCSC-2 spheroids were established using standard methodology and exposed to increasing concentration of compound 2 over 24 hrs. A, Control; B. 0.1 μg/ml-24 hr; C, 1 μg/ml-24 hr Spheroid structure was assessed by microscopy.
Ovarian cancer stem cell spheroids were obtained from cultures grown under special conditions that selected for cells with self-renewing potential (Alvero et al., 2009). Briefly, CD44+ cells were incubated in a suspension system consisting of a glass tube in continuous rotation to prevent adherence These cells formed clusters in 48 hrs and compact spheroids in 4 days. Spheroids were then exposed to 0.1 and 1 μg/ml of compound 2 and examined microscopically after 24 hrs.

mCherry-labeled OCC2 = test: Co-culture fluorescence microscopy, mCherry-labeled OCC2 cells; type: cell-based, human; conditions: 1 μg/ml for 48 hrs, recovery 72 hrs
Experimental: GFP-labeled OCSC2 and mCherry-labeled OCC2 cells were established by infecting cells with lentivirus expressing the fluorescent proteins (Craveiro et al. 2013). Co-cultures of GFP+ OCSC2 and mCherry+ OCC2 were treated with 1 μg/ml of compound 2 for 48 hrs and allowed to recover for another 72 hrs. Fluorescence was determined by fluorescence microscopy.

D54-sensitive = test: Cell viability (SRB or MTT), TMZ-sensitive D54 subclone; type: cell-based; conditions: 72 h, 72 hours post treatment
Experimental: as §1

F2 = test: Ovarian cancer stem cell proliferation/cytotoxicity (Incucyte, CellTox), F2; type: cell-based; conditions: Homo sapiens
Experimental: The ability of compounds 1 to 14 to inhibit the proliferation of ovarian cancer stem cells was established from patient-derived explants. The laboratory of Dr Gil Mor (Yale University) have identified two types of epithelial ovarian cancer cells: Type I are chemoresistant, CD44+ve epithelial ovarian cancer (EOC) cells and Type II are chemosensitive CD44−ve EOC cells. Ovarian cancer stem cells were prepared as described previously (Alvero et al., 2009). Cell proliferation was assessed using the Incucyte Kinetic Imaging System. The cytotoxic effect of the compounds was assessed concurrently using the CellPlayer cytotoxicity assay using CellTox™ (Promega, Cat#: G8731). Monolayer cells were trypsinised and plated in 96-well plates. After 24 hrs, once the cells have attached, treatment was dispensed in RPMI with 10% FBS. Drug concentrations used were: 0.001, 0.01, 0.1, 1, and 10 μg/ml. […] Culture plates were immediately placed in the Incucyte system and imaged every 2 hrs using the “Fluorescence and Phase contrast” option on the Incucyte equipment. Growth curves were calculated as a measure of cell confluence using an integrated confluence algorithm as a surrogate for cell number to determine proliferation rate. The area under the curve calculated from the plot of CsttTox Count/mm^2 over time was then used to calculate the IC50. […]

COc1cc(C2COc3c(ccc(O)c3C)C2c2ccc(O)cc2)cc(OC)c1O (racemic) [Compound 2, 3-(4-Hydroxy-3,5-dimethoxyphenyl)-4-(4-hydroxyphenyl)-8-methylchroman-7-ol]
IC50 (D54-resistant; MTT): 215 nM
IC50 (D54-resistant; SRB): 92 nM
IC50 (U87-resistant; MTT): 358 nM
IC50 (U87-resistant; SRB): 128 nM
growth after drug removal (OCSC-2 cells): failed to enter logarithmic growth
IC50 (OCSC1): 0.01 to 0.1 µg/mL (≈ 0.0245 to 0.245 µM)
spheroid infrastructure ([1]; 0.1 μg/ml): had started to disintegrate
spheroid structure ([1]; 1 μg/ml): almost totally destroyed
effect on mCherry-labeled OCC2 cells (mCherry-labeled OCC2): round up and lift off the culture surface
IC50 (D54-sensitive; MTT): 271 nM
IC50 (D54-sensitive; SRB): 90 nM
IC50 (F2; F2, read-out: IC50 Range): 0.1 to 1 µg/mL (≈ 0.245 to 2.45 µM)
IC50 (F2; F2 cells, read-out: concentrations retarding proliferation): 0.1 to 1 µg/mL (≈ 0.245 to 2.45 µM)
